Test results: PubChem BioAssay (NCI)
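Tested at 5 concentrations; 48 h exposure; 96-well plates; endpoints linearly interpolated, else capped at highest concentration. The concentration for full growth arrest is given as TGI.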

What was measured:
Assay in all cases: NCI-60 cell line screen, 48 h
[1] = system: MOLT-4 leukemia
[2] = system: DU-145 prostate
[3] = system: SF-268 CNS
[4] = system: UACC-62 melanoma
[5] = system: COLO 205 colon
[6] = system: RPMI-8226 leukemia
[7] = system: SF-295 CNS
[8] = system: SN12C renal
[9] = system: A498 renal
[10] = system: HS 578T breast
[11] = system: PC-3 prostate
[12] = system: MDA-N
[13] = system: MCF7 breast
[14] = system: RXF 393 renal
[15] = system: UO-31 renal
[16] = system: ACHN renal
[17] = system: SNB-19 CNS
[18] = system: SF-539 CNS
[19] = system: SK-OV-3 ovarian
[20] = system: MALME-3M melanoma
[21] = system: A549 NSCLC
[22] = system: MDA-MB-435
[23] = system: HOP-62 NSCLC
[24] = system: M14 melanoma
[25] = system: HCT-116 colon
[26] = system: BT-549 breast
[27] = system: OVCAR-4 ovarian
[28] = system: MDA-MB-231 breast
[29] = system: NCI-H23 lung
[30] = system: NCI-H460 lung
[31] = system: IGROV1 ovarian
[32] = system: SK-MEL-2 melanoma
[33] = system: KM12 colon
[34] = system: EKVX NSCLC
[35] = system: SNB-75 CNS
[36] = system: SK-MEL-28 melanoma
[37] = system: T-47D breast
[38] = system: K-562 leukemia
[39] = system: U251 CNS
[40] = system: NCI/ADR-RES ovarian
[41] = system: TK-10 renal
[42] = system: NCI-H226 lung
[43] = system: HCT-15 colon
[44] = system: CCRF-CEM leukemia
[45] = system: HCC-2998 colon
[46] = system: LOX IMVI melanoma
[47] = system: OVCAR-8 ovarian
[48] = system: 786-0 renal
[49] = system: OVCAR-5 ovarian
[50] = system: SW-620 colon
[51] = system: OVCAR-3 ovarian
[52] = system: UACC-257 melanoma
[53] = system: HT29 colon
[54] = system: SK-MEL-5 melanoma
[55] = system: HOP-92 NSCLC
[56] = system: NCI-H522 lung
[57] = system: SR leukemia
[58] = system: CAKI-1 renal

`CC1=CC2(C)C=C[C@@H]1C(=O)[C@@]1(C)CC[C@@](O)(C(C)C)[C@H]1CC2` was tested, and the TGI [1] was 51.9 µM, the TGI [2] was 72.1 µM and the TGI [3] was 57.1 µM. The TGI [4] was 45.5 µM, the TGI [5] was 40.2 µM and the TGI [6] was 62 µM. The TGI [7] was 38.1 µM, the TGI [8] was 39.4 µM and the TGI [9] was 45.6 µM. For the same compound, the TGI [10] was 54.9 µM, the TGI [11] was 51.9 µM and the TGI [12] was 47.5 µM. For the same compound, the TGI [13] was 76 µM, the TGI [14] was 43.5 µM and the TGI [15] was 31.4 µM. For the same compound, the TGI [16] was 45.9 µM, the TGI [17] was 65.7 µM and the TGI [18] was 35 µM. For the same compound, the TGI [19] was 54.6 µM, the TGI [20] was 36.2 µM and the TGI [21] was greater than 100 µM. For the same compound, the TGI [22] was 43.2 µM, the TGI [23] was 35.2 µM and the TGI [24] was 35.8 µM. It also gave a TGI [25] of 32.2 µM, a TGI [26] of 60.7 µM and a TGI [27] of 38.2 µM. For the same compound, the TGI [28] was 35.5 µM, the TGI [29] was 50.4 µM and the TGI [30] was 32.5 µM. It also gave a TGI [31] of 51.7 µM, a TGI [32] of 77 µM and a TGI [33] of 41.7 µM. For the same compound, the TGI [34] was 63.1 µM, the TGI [35] was 58.3 µM and the TGI [36] was 41.7 µM. For the same compound, the TGI [37] was 88 µM, the TGI [38] was 52.1 µM and the TGI [39] was 33.1 µM. The TGI [40] was 40 µM, the TGI [41] was greater than 100 µM and the TGI [42] was 43.8 µM. For the same compound, the TGI [43] was 55.8 µM, the TGI [44] was 53.4 µM and the TGI [45] was 34.6 µM. For the same compound, the TGI [46] was 39 µM, the TGI [47] was 32.6 µM and the TGI [48] was 33.3 µM. The TGI [49] was 34.6 µM, the TGI [50] was 37.7 µM and the TGI [51] was 32.2 µM. For the same compound, the TGI [52] was 34.1 µM, the TGI [53] was 32.6 µM and the TGI [54] was 34 µM. For the same compound, the TGI [55] was 28.2 µM.
`CCC1=CC(OCc2ccccc2)C(CCN(Cc2ccccc2)C(=O)OCc2ccccc2)C1` (centres undefined) was tested, and the TGI [56] was 25.9 µM, the TGI [1] was 46.5 µM and the TGI [2] was 30.2 µM. It also gave a TGI [3] of 32.5 µM, a TGI [4] of 24.8 µM and a TGI [5] of 45.6 µM. It also gave a TGI [6] of 86.2 µM, a TGI [7] of 35.3 µM and a TGI [9] of 48.4 µM. The TGI [10] was 32.6 µM, the TGI [11] was 42.9 µM and the TGI [12] was 54.1 µM. For the same compound, the TGI [13] was 35 µM, the TGI [14] was 17.7 µM and the TGI [15] was 28.3 µM. It also gave a TGI [16] of 30.9 µM, a TGI [17] of 30.9 µM and a TGI [18] of 49.1 µM. It also gave a TGI [19] of 80.6 µM, a TGI [20] of 30.1 µM and a TGI [21] of 32.1 µM. It also gave a TGI [22] of 32.7 µM, a TGI [57] of 56.4 µM and a TGI [23] of 37.1 µM. The TGI [24] was 27.8 µM, the TGI [27] was 27.4 µM and the TGI [28] was 62.6 µM. The TGI [29] was 33.4 µM, the TGI [30] was 39.7 µM and the TGI [31] was 29.8 µM. The TGI [32] was 42.1 µM, the TGI [33] was 29.7 µM and the TGI [58] was 28.3 µM. For the same compound, the TGI [34] was 32.8 µM, the TGI [35] was 22.6 µM and the TGI [36] was 37.8 µM. For the same compound, the TGI [37] was 22.8 µM, the TGI [38] was greater than 100 µM and the TGI [39] was 62 µM. It also gave a TGI [40] of 35.3 µM, a TGI [41] of 30.9 µM and a TGI [42] of 36.5 µM. It also gave a TGI [43] of 29.1 µM, a TGI [45] of 35.8 µM and a TGI [46] of 32.7 µM. For the same compound, the TGI [47] was 32.8 µM, the TGI [48] was 40.1 µM and the TGI [49] was 36.9 µM. For the same compound, the TGI [50] was 37 µM, the TGI [51] was 28.4 µM and the TGI [52] was 30.3 µM. It also gave a TGI [53] of 37.6 µM, a TGI [54] of 37.8 µM and a TGI [55] of 27 µM.
